Experimental data: patent US20260297128A1, “PEPTOID COMPOSITIONS TARGETING RAS PROTEINS AND METHODS OF TREATMENT OF CANCER USING THE SAME” (University of Houston System, priority 2023, published 2026)
Non-standard residues stand in square brackets, D forms with d. Residues, ends and D or L forms follow the SMILES beside them. *: point of attachment. X2 = COc1ccc(CN(CC(=O)N(CCCOC(C)C)CC(=O)*)C(=O)CCC(=O)c2cccs2)cc1; N(4-MeOBn)Gly = COc1ccc(CNCC(=O)O)cc1; N((CH2)3OiPr)Gly = CC(C)OCCCNCC(=O)O; Stearoyl = CCCCCCCCCCCCCCCCCC(=O)*; Palmitoyl = CCCCCCCCCCCCCCCC(=O)*; Myristoyl = CCCCCCCCCCCCCC(=O)*; Gly(N-cHex) = O=C(O)CNC1CCCCC1; X1 = O=C(CCC(=O)*)c1cccs1; Nlys = NCCCCNCC(=O)O; Nme = COCCNCC(=O)O

Legend:
[1] = test system: H441 cells; test: MTS cell viability assay; type: cell-based; conditions: H441 (KRASG12V); vs PKR1
Source text: Three cancer cell lines (H441, H358, and H1993) harboring KRAS G12V, KRAS G12C, and WT KRAS, respectively, were subjected to treatment with the fatty acid conjugated-PKR1. […] FIGS. 6A-6C are graphical representations of the effects of the fatty acid conjugated PKR1 derivatives on cell survival and proliferation of (A) H441, (B) H358, and (C) H1993 cell lines. FIG. 6D presents the IC50 values of fatty acid conjugated PKR1 derivatives in H441, H1993, and H358 cell lines. […] As KRAS is predominant in the membrane consisting of unsaturated fatty acids, conjugating unsaturated fatty acids to PKR1 can facilitate its anchoring onto the membrane, thereby improving efficacy.
To examine the capacity of PKR1 derivatives as broad-spectrum KRAS inhibitors, MTS assays were conducted in various types of cell lines representing different cancer types, KRAS mutations, and KRAS gene zygosity (Table 1). IC50 values for each cell line were obtained from the MTS assay with PKR1-C16 treatment.

[2] = test system: H2122 cells; conditions: homozygous KRAS G12C (H2122) vs heterozygous KRAS G12C (H23); cited from earlier work
[3] = test system: H441 cells; test: Cell viability, single and combination treatment with MEK/ERK inhibitors; type: cell-based; conditions: Homo sapiens, NCI-H441; single treatment, 3 D incubation; heterozygous KRAS G12V
Source text: Provided herein are pan-KRAS inhibitors that can enhance the sensitivity of heterozygous KRAS mutant cells to KRAS downstream inhibitors, thereby overcoming limitations in their use for cancer therapy. FIG. 11A is an illustration presenting that heterozygous KRAS mutant cells are resistant to the inhibition of KRAS downstream signaling while homozygous KRAS mutant cells are sensitive to such inhibition, therefore blocking wild type KRAS potentially re-sensitizes the heterozygous KRAS mutant cells to the inhibition of KRAS downstream signaling. Cell viability of H441 cells harboring heterozygous KRAS G12V were assessed in combination treatment with PKR1-C16. FIG. 11B is a graphical representation presenting the cell viability of H441 harboring heterozygous KRAS G12V with co-treatments of Trametinib (upper panel) and Ulixertinib with PKR1-C16 (lower panel). […] Concentration gradients of Trametinib and Ulixertinib were co-treated with 1, 3, 5, and 7 μM of PKR1-C16, respectively. […] Blocking WT KRAS enables the re-sensitization of heterozygous KRAS mutant cells to the inhibitors of KRAS downstream signaling.

Structure (SMILES) | increase in potency [1] | potency in H2122 compared with H23 cells [2] | IC50 [3] [µM]
CCCCCCCCCCCCCC(=O)NCCCC[C@H](NC(=O)[C@H](C)NC(=O)CN(CCOC)C(=O)CN(CCCCN)C(=O)CN(CCCCN)C(=O)CN(C(=O)CN(CCCOC(C)C)C(=O)[C@H](CCCCNC(=O)CN(CCCOC(C)C)C(=O)CN(Cc1ccc(OC)cc1)C(=O)CCC(=O)c1cccs1)NC(=O)CN(CCCOC(C)C)C(=O)CN(Cc1ccc(OC)cc1)C(=O)CCC(=O)c1cccs1)C1CCCCC1)C(N)=O [PKR1-C14] (X1-[N(4-MeOBn)Gly][N((CH2)3OiPr)Gly]K(X2)[N((CH2)3OiPr)Gly][Gly(N-cHex)][Nlys][Nlys][Nme]AK(Myristoyl)-NH2) | over 25 fold |  | 
CCCCCCCCCCCCCCCC(=O)NCCCC[C@H](NC(=O)[C@H](C)NC(=O)CN(CCOC)C(=O)CN(CCCCN)C(=O)CN(CCCCN)C(=O)CN(C(=O)CN(CCCOC(C)C)C(=O)[C@H](CCCCNC(=O)CN(CCCOC(C)C)C(=O)CN(Cc1ccc(OC)cc1)C(=O)CCC(=O)c1cccs1)NC(=O)CN(CCCOC(C)C)C(=O)CN(Cc1ccc(OC)cc1)C(=O)CCC(=O)c1cccs1)C1CCCCC1)C(N)=O [PKR1-C16] (X1-[N(4-MeOBn)Gly][N((CH2)3OiPr)Gly]K(X2)[N((CH2)3OiPr)Gly][Gly(N-cHex)][Nlys][Nlys][Nme]AK(Palmitoyl)-NH2) | over 25 fold |  | 
CCCCCCCCCCCCCCCCCC(=O)NCCCC[C@H](NC(=O)[C@H](C)NC(=O)CN(CCOC)C(=O)CN(CCCCN)C(=O)CN(CCCCN)C(=O)CN(C(=O)CN(CCCOC(C)C)C(=O)[C@H](CCCCNC(=O)CN(CCCOC(C)C)C(=O)CN(Cc1ccc(OC)cc1)C(=O)CCC(=O)c1cccs1)NC(=O)CN(CCCOC(C)C)C(=O)CN(Cc1ccc(OC)cc1)C(=O)CCC(=O)c1cccs1)C1CCCCC1)C(N)=O [PKR1-C18] (X1-[N(4-MeOBn)Gly][N((CH2)3OiPr)Gly]K(X2)[N((CH2)3OiPr)Gly][Gly(N-cHex)][Nlys][Nlys][Nme]AK(Stearoyl)-NH2) | over 25 fold |  | 
CC(=O)Nc1cccc(-n2c(=O)n(C3CC3)c(=O)c3c(Nc4ccc(I)cc4F)n(C)c(=O)c(C)c32)c1 [Trametinib, trametinib] |  | higher potency in H2122 cells | 10.4
CC(C)Nc1cc(-c2c[nH]c(C(=O)N[C@H](CO)c3cccc(Cl)c3)c2)c(Cl)cn1 [Ulixertinib, ulixertinib] |  | higher potency in H2122 cells | 17
